Consider 17 molecules from patent US8969395B2, “Triterpenoid derivatives useful as antiproliferative agents” (Universidade de Coimbra, priority 2009, dated 2015).

The structures appear in SMILES notation.

Broadly, the IC50 is the point on the concentration scale where inhibition reaches its midpoint. A high value points to weaker potency.

What all share (type): cell-based
Settings in all cases: 72 h, mean ±SD

For test [1], the system named is HeLa (human cervical adenocarcinoma). In words: Cytotoxic activity, MTT assay, HeLa. How it is done:
(§1) The cytotoxic of compounds of formulas (I) and (II) 14-50 was assessed towards human cancer (HepG2, HeLa and Jurkat) cell lines (Table 3 below). Compounds presented on Table 4 were also tested against a non-tumoral liver cell line (Chang liver). The cell viability of HeLa, HepG2 and Chang liver cells was determined by the MTT assay. Briefly, exponentially growing cells were plated in 96-well plates at a density of 1×10^3, 8×10^3 and 5×10^3 cells/well respectively and incubated for 24 h before treatment. The grown medium was replaced with one contained the tested compounds dissolved in DMSO (final DMSO concentration <0.1%) at different concentrations, in triplicate wells, and cells were incubated for 72 h. After incubation with the compounds, the medium was removed and MTT solution (0.5 mg/ml, 100 μl) was added to each well and the plates were incubated again for 1 h. DMSO (100 μl) was then added to dissolve the formazan crystals and the plates were immediately read at 550 nm on an ELISA plate reader (Tecan Sunrise MR20-301, TECAN, Austria). For the Jurkat cells, the cell viability was determined by the XTT assay. Briefly, exponentially growing cells were plated in 96-well plates at a density of 5.5×10^3 cells/well, treated with different concentrations of compounds in triplicate and incubated for 72 h. After incubation with the compounds the XTT labeling mixture (100 μl) were added to each of the wells and after a 4 h incubation period the plates were read at 450 nm on an ELISA plate reader. […] Known for its cytotoxic activity, betulinic acid 2 was used as a positive control in this experimentation.
A general note: Tetrazolium assays rely on reduction of a dye to a coloured formazan, in cell work by metabolically active cells.

Another test relates to Jurkat (human leukemia). Briefly: Cytotoxic activity, XTT assay, Jurkat. How it is done:
as §1, with “experimentation. […] All the IC50 results represent an average of a minimum of three experiments and were expressed as means±standard deviation (SD).” for “experimentation.”

Test [2] concerns HepG2 (human hepatocellular carcinoma). In words: Cytotoxic activity, MTT assay, HepG2. Here is the method: as §1, with “experimentation. […] All the IC50 results represent an average of a minimum of three experiments and were expressed as means±standard deviation (SD).” for “experimentation.”
Test [3] deals with Chang liver (human normal liver cells). In words: Cytotoxic activity against non-tumoral cell line, MTT assay. How it is done:
as §1, with “experimentation. […] All the IC50 results represent an average of a minimum of three experiments and were expressed as means±standard deviation (SD).” for “experimentation.”

Molecule `C=C(C)[C@@H]1CC[C@]2(COC(=O)n3cncn3)CC[C@]3(C)[C@H](CC[C@@H]4[C@@]5(C)CC[C@H](O)C(C)(C)[C@@H]5CC[C@]43C)[C@@H]12` [Compound 16, 3β-hydroxy-lup-20(29)-en-28-yl-1H-triazole-1-carboxylate] displayed an IC50 in test [1] of 15.2 ± 2.1 µM.

`C=C(C)[C@@H]1CC[C@]2(COC(=O)n3ccnc3C)CC[C@]3(C)[C@H](CC[C@@H]4[C@@]5(C)CC[C@H](OC(=O)n6ccnc6C)C(C)(C)[C@@H]5CC[C@]43C)[C@@H]12` [Compound 18, Lup-20(29)-en-3β,28-di-yl-(2′-methyl-1H-imidazole-1-carboxylate)]: the IC50 (with Jurkat (human leukemia); in test [1]; in test [2]) was above 30 µM in each case.

In test [1], `C=C(C)C1CCC2(COC(=O)n3cncn3)CCC3(C)C(CCC4C5(C)CCC(OC(=O)n6cncn6)C(C)(C)C5CCC43C)C12` (stereo not drawn) [Compound 19, Lup-20(29)-en-3β,28-di-yl-(1H-triazole-1-carboxylate)] gave an IC50 above 30 µM.

`C=C(C)[C@@H]1CC[C@]2(CO)CC[C@]3(C)[C@H](CC[C@@H]4[C@@]5(C)CC[C@H](OC(=O)n6cncn6)C(C)(C)[C@@H]5CC[C@]43C)[C@@H]12` [Compound 21, 28-hydroxy-lup-20(29)-en-3β-yl-1H-triazole-1-carboxylate] returned an IC50 in test [1] of 11.3 ± 1.9 µM.

With `C=C(C)[C@@H]1CC[C@]2(COC(=O)n3ccnc3)CC[C@]3(C)[C@H](CC[C@@H]4[C@@]5(C)CC[C@H](OC(C)=O)C(C)(C)[C@@H]5CC[C@]43C)[C@@H]12` [Compound 22, 3β-acetoxy-lup-20(29)-en-28-yl-1H-imidazole-1-carboxylate], the IC50 (in the test with Jurkat (human leukemia); in test [1]; in test [2]) was above 30 µM throughout.

As to `C=C(C)[C@@H]1CC[C@]2(COC(=O)n3ccnc3C)CC[C@]3(C)[C@H](CC[C@@H]4[C@@]5(C)CC[C@H](OC(C)=O)C(C)(C)[C@@H]5CC[C@]43C)[C@@H]12` [Compound 23, 3β-acetoxy-lup-20(29)-en-28-yl-2′-methyl-1H-imidazole-1-carboxylate], the concentration for half-maximal inhibition (IC50) (in the test with Jurkat (human leukemia); in test [1]; in test [2]) was above 30 µM throughout.

Regarding `C=C(C)[C@@H]1CC[C@]2(COC(=O)n3cncn3)CC[C@]3(C)[C@H](CC[C@@H]4[C@@]5(C)CC[C@H](OC(C)=O)C(C)(C)[C@@H]5CC[C@]43C)[C@@H]12` [Compound 24, 3β-acetoxy-lup-20(29)-en-28-yl-1H-triazole-1-carboxylate], the IC50 in test [1] is 23.2 ± 2.1 µM.

Regarding `C=C(C)[C@@H]1CC[C@]2(COC(C)=O)CC[C@]3(C)[C@H](CC[C@@H]4[C@@]5(C)CC[C@H](OC(=O)n6ccnc6)C(C)(C)[C@@H]5CC[C@]43C)[C@@H]12` [Compound 25, 28-acetoxy-lup-20(29)-en-3β-yl-1H-imidazole-1-carboxylate], the IC50 (in the test on Jurkat (human leukemia); in test [1]; in test [2]) was above 30 µM throughout.

As for `C=C(C)[C@@H]1CC[C@]2(COC(C)=O)CC[C@]3(C)[C@H](CC[C@@H]4[C@@]5(C)CC[C@H](OC(=O)n6ccnc6C)C(C)(C)[C@@H]5CC[C@]43C)[C@@H]12` [Compound 26, 28-acetoxy-lup-20(29)-en-3β-yl-2′-methyl-1H-imidazole-1-carboxylate], the IC50 (in the test on Jurkat (human leukemia); in test [1]; in test [2]) was above 30 µM each time.

As for `C=C(C)C1CCC2(COC(C)=O)CCC3(C)C(CCC4C5(C)CCC(OC(=O)n6cncn6)C(C)(C)C5CCC43C)C12` (stereo not drawn) [Compound 27, 28-acetoxy-lup-20(29)-en-3β-yl-1H-triazole-1-carboxylate], the IC50 in test [1] is above 30 µM.

Molecule `C=C(C)C1CCC2(C(=O)n3cncn3)CCC3(C)C(CCC4C5(C)CCC(OC(=O)n6cncn6)C(C)(C)C5CCC43C)C12` (stereo not drawn) [Compound 32, 28-(1H-triazole-1-yl)-28-oxo-lup-20(29)-en-3β-yl-1H-triazole-1-carboxylate] gave an IC50 in test [1] of 14.5 ± 3.2 µM.

As to `C=C(C)[C@@H]1CC[C@]2(C(=O)OC)CC[C@]3(C)[C@H](CC[C@@H]4[C@@]5(C)CC[C@H](OC(=O)n6ccnc6)C(C)(C)[C@@H]5CC[C@]43C)[C@@H]12` [Compound 33, Methyl 3β-(1H-imidazole-1-carbonyloxy)-lup-20(29)-en-28-oate], the IC50 amounted to 9.9 ± 0.6 µM with Jurkat (human leukemia), 8.2 ± 0.5 µM in test [1], 73.9 ± 3.6 µM in test [3] and 4.3 ± 0.1 µM in test [2].

For `C=C(COC)[C@@H]1CC[C@]2(COC(=O)n3cncn3)CC[C@]3(C)[C@H](CC[C@@H]4[C@@]5(C)CC[C@H](O)C(C)(C)[C@@H]5CC[C@]43C)[C@@H]12` [Compound 37, 3β-hydroxy-30-methoxylup-20(29)-en-28-yl-1H-triazole-1-carboxylate], in test [1], half-maximal inhibition (IC50) was put at 13.8 ± 2.3 µM.

Regarding `C=C(COC)[C@@H]1CC[C@]2(COC(=O)n3ccnc3C)CC[C@]3(C)[C@H](CC[C@@H]4[C@@]5(C)CC[C@H](OC(=O)n6ccnc6C)C(C)(C)[C@@H]5CC[C@]43C)[C@@H]12` [Compound 39, 30-methoxylup-20(29)-en-3β,28-di-yl-(2′-methyl-1H-imidazole-1-carboxylate)], the IC50 with Jurkat (human leukemia) is above 30 µM; in test [1] it was 13.4 ± 0.6 µM; in test [2] it was 28.2 ± 2.5 µM.

The molecule `C=C(COC)C1CCC2(COC(=O)n3cncn3)CCC3(C)C(CCC4C5(C)CCC(OC(=O)n6cncn6)C(C)(C)C5CCC43C)C12` (stereo not drawn) [Compound 40, 30-methoxylup-20(29)-en-3β,28-di-yl-(1H-triazole-1-carboxylate)] showed an IC50 in test [1] above 30 µM.

Consider `C=C(C)[C@@H]1CC[C@]2(C(=O)n3ccnc3)CC[C@]3(C)[C@H](CC[C@@H]4[C@@]5(C)C=C(O)C(=O)C(C)(C)[C@@H]5CC[C@]43C)[C@@H]12` [Compound 48, 2-hydroxy-28-(1H-imidazol-1-yl)-lup-1,20(29)-dien-3,28-dione], for which the IC50 with Jurkat (human leukemia) was found to be 7 ± 1.6 µM; in test [1], 4.6 ± 0.7 µM; in test [3] it was 62.8 ± 10.3 µM; in test [2], 6.5 ± 0.4 µM.

As for `C=C(C)[C@@H]1CC[C@]2(C(=O)n3ccnc3)CC[C@]3(C)[C@H](CC[C@@H]4[C@@]5(C)C=C(OC(=O)n6ccnc6)C(=O)C(C)(C)[C@@H]5CC[C@]43C)[C@@H]12` [Compound 49, 2-(1H-imidazole-1-carbonyloxy)-28-(1H-imidazol-1-yl)-lup-1,20(29)-dien-3,28-dione], the IC50 is 8.1 ± 0.6 µM with Jurkat (human leukemia), 3.9 ± 0.3 µM in test [1], 71.6 ± 4.9 µM in test [3] and 4 ± 0.3 µM in test [2].
